PubChem BioAssay AID2060513 (Molecular Pharmacology Branch, DTP, NCI, 2025)
pIC50: −log10 of the molar value. Several values for one entry are separate records, joined by “and”; a condition that tells them apart may be missing. Identical values can stand only once.

Tested on: 299254-011-R-J1-PDC complex spheroids viability
Assay: Anticancer human tumor 299254-011-R-J1-PDC patient-derived melanoma cell line growth inhibition [GQUAD]
Settings: for viability, T/C: stronger effect = lower value
Outline: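 Tumor cells were grown as complex spheroids with HUVEC endothelial cells and mesenchymal stem cells as stroma. G-quadruplex stabilizers were combined with targeted agents over half-log dilutions from near the clinical Cmax, or from 10 microM.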

[1] = curve of first compound, second compound 0.0316 µM
[2] = curve of first compound, second compound 0.1 µM
[3] = curve of first compound, second compound 0.316 µM
[4] = curve of first compound, second compound 1 µM
[5] = curve of first compound, second compound 3.16 µM
[6] = curve of first compound, second compound 10 µM
[7] = second compound 0.0316 µM, first compound 0.0316 µM
[8] = second compound 0.0316 µM, first compound 0.1 µM
[9] = second compound 0.0316 µM, first compound 0.316 µM
[10] = second compound 0.0316 µM, first compound 1 µM
[11] = second compound 0.0316 µM, first compound 3.16 µM
[12] = second compound 0.0316 µM, first compound 10 µM
[13] = second compound 0.1 µM, first compound 0.0316 µM
[14] = second compound 0.1 µM, first compound 0.1 µM
[15] = second compound 0.1 µM, first compound 0.316 µM
[16] = second compound 0.1 µM, first compound 1 µM
[17] = second compound 0.1 µM, first compound 3.16 µM
[18] = second compound 0.1 µM, first compound 10 µM
[19] = second compound 0.316 µM, first compound 0.0316 µM
[20] = second compound 0.316 µM, first compound 0.1 µM
[21] = second compound 0.316 µM, first compound 0.316 µM
[22] = second compound 0.316 µM, first compound 1 µM
[23] = second compound 0.316 µM, first compound 3.16 µM
[24] = second compound 0.316 µM, first compound 10 µM
[25] = second compound 1 µM, first compound 0.0316 µM
[26] = second compound 1 µM, first compound 0.1 µM
[27] = second compound 1 µM, first compound 0.316 µM
[28] = second compound 1 µM, first compound 1 µM
[29] = second compound 1 µM, first compound 3.16 µM
[30] = second compound 1 µM, first compound 10 µM
[31] = second compound 3.16 µM, first compound 0.0316 µM
[32] = second compound 3.16 µM, first compound 0.1 µM
[33] = second compound 3.16 µM, first compound 0.316 µM
[34] = second compound 3.16 µM, first compound 1 µM
[35] = second compound 3.16 µM, first compound 3.16 µM
[36] = second compound 3.16 µM, first compound 10 µM
[37] = second compound 10 µM, first compound 0.0316 µM
[38] = second compound 10 µM, first compound 0.1 µM
[39] = second compound 10 µM, first compound 0.316 µM
[40] = second compound 10 µM, first compound 1 µM
[41] = second compound 10 µM, first compound 3.16 µM
[42] = second compound 10 µM, first compound 10 µM
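Note: spheroids exposed to the agents for seven days before readout.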
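Throughout, for viability, T/C: percent viability relative to DMSO vehicle control wells = 100%.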

SMILES: Nc1ccn(C2OC(CO)C(O)C2(F)F)c(=O)n1 (stereo unspecified) + CN(C)c1ccc(Nc2c3ccc(NC(=O)CCN4CCCC4)cc3nc3cc(NC(=O)CCN4CCCC4)ccc23)cc1
- pIC50 [1]: < 5.00
- pIC50 [2]: < 5.00
- pIC50 [3]: 5.50
- pIC50 [4]: < 5.00
- pIC50 [5]: < 5.00
- pIC50 [6]: < 5.00
- viability, T/C [7]: 84%
- viability, T/C [8]: 73.5%
- viability, T/C [9]: 66.9%
- viability, T/C [10]: 60.4%
- viability, T/C [11]: 54.7%
- viability, T/C [12]: 59.3%
- viability, T/C [13]: 80.3%
- viability, T/C [14]: 94.6%
- viability, T/C [15]: 67.1%
- viability, T/C [16]: 56.6%
- viability, T/C [17]: 58.1%
- viability, T/C [18]: 59.7%
- viability, T/C [19]: 85.2%
- viability, T/C [20]: 117%
- viability, T/C [21]: 51.7%
- viability, T/C [22]: 59.6%
- viability, T/C [23]: 68.3%
- viability, T/C [24]: 56.7%
- viability, T/C [25]: 93.5%
- viability, T/C [26]: 81.2%
- viability, T/C [27]: 68.7%
- viability, T/C [28]: 57.8%
- viability, T/C [29]: 63%
- viability, T/C [30]: 72.9%
- viability, T/C [31]: 94.1%
- viability, T/C [32]: 98.1%
- viability, T/C [33]: 71.3%
- viability, T/C [34]: 59.7%
- viability, T/C [35]: 55.6%
- viability, T/C [36]: 59%
- viability, T/C [37]: 105%
- viability, T/C [38]: 80.1%
- viability, T/C [39]: 65.6%
- viability, T/C [40]: 64.3%
- viability, T/C [41]: 66.6%
- viability, T/C [42]: 61.6%

SMILES: CC1COCCN1c1cc(C2(S(C)(=N)=O)CC2)nc(-c2ccnc3[nH]ccc23)n1 (stereo unspecified)
- viability, T/C (compound 0.0316 µM): 98.9% (2×) and 94.3%
- viability, T/C (compound 0.1 µM): 100% and 103% and 80.5%
- viability, T/C (compound 0.316 µM): 79.7% and 97% and 97.8%
- viability, T/C (compound 1 µM): 68% and 100% and 61%
- viability, T/C (compound 3.16 µM): 67.9% and 60.8% and 37.7%
- viability, T/C (compound 10 µM): 28.7% and 29.5% and 16.5%
- pIC50 (curve of compound): 5.36 and 5.33 and 5.74

SMILES: O=C(NO)c1cnc(N2CCN(S(=O)(=O)c3ccc4ccccc4c3)CC2)nc1 + Cc1cnc(CNC(=O)c2c(=O)c3ccc(N4CCCN(C)CC4)nc3n3c2sc2ccccc23)cn1
- pIC50 [1]: 6.70
- pIC50 [2]: 6.64
- pIC50 [3]: 6.64
- pIC50 [4]: 6.68
- pIC50 [5]: 6.67
- pIC50 [6]: > 7.50
- viability, T/C [7]: 112%
- viability, T/C [8]: 94.8%
- viability, T/C [9]: 20.9%
- viability, T/C [10]: 0.93%
- viability, T/C [11]: 0.18%
- viability, T/C [12]: 0.19%
- viability, T/C [13]: 107%
- viability, T/C [14]: 97.8%
- viability, T/C [15]: 30.7%
- viability, T/C [16]: 1.22%
- viability, T/C [17]: 0.15%
- viability, T/C [18]: 0.24%
- viability, T/C [19]: 102%
- viability, T/C [20]: 109%
- viability, T/C [21]: 27.9%
- viability, T/C [22]: 0.56%
- viability, T/C [23]: 0.14%
- viability, T/C [24]: 0.21%
- viability, T/C [25]: 93.6%
- viability, T/C [26]: 83%
- viability, T/C [27]: 31.8%
- viability, T/C [28]: 1.83%
- viability, T/C [29]: 0.13%
- viability, T/C [30]: 0.18%
- viability, T/C [31]: 74.8%
- viability, T/C [32]: 91.3%
- viability, T/C [33]: 32.3%
- viability, T/C [34]: 0.19%
- viability, T/C [35]: 0.15%
- viability, T/C [36]: 0.16%
- viability, T/C [37]: 45.8%
- viability, T/C [38]: 11.5%
- viability, T/C [39]: 0.31%
- viability, T/C [40]: 0.22%
- viability, T/C [41]: 0.22%
- viability, T/C [42]: 0.23%
